# In ChEMBL document CHEMBL1145616, “Pyridyl-phenyl ether monoamine reuptake inhibitors: Impact of lipophilicity on dual SNRI pharmacology and off-target promiscuity” (Bioorg Med Chem Lett, 2008):
# pIC50: −log10 of the molar value.
# Tests used:
# [1] = molecular target: Sodium-dependent serotonin transporter (Homo sapiens, UniProt P31645); assay: Inhibition of [3H]5-HT uptake at human recombinant 5HT transporter expressed in HEK293 cells; assay type: cell-based
# [2] = molecular target: Sodium-dependent noradrenaline transporter (Homo sapiens, UniProt P23975); assay: Inhibition of [3H]NA uptake at human recombinant NA transporter expressed in HEK293 cells; assay type: cell-based
# Chain of Sodium-dependent noradrenaline transporter (P23975 whole entry): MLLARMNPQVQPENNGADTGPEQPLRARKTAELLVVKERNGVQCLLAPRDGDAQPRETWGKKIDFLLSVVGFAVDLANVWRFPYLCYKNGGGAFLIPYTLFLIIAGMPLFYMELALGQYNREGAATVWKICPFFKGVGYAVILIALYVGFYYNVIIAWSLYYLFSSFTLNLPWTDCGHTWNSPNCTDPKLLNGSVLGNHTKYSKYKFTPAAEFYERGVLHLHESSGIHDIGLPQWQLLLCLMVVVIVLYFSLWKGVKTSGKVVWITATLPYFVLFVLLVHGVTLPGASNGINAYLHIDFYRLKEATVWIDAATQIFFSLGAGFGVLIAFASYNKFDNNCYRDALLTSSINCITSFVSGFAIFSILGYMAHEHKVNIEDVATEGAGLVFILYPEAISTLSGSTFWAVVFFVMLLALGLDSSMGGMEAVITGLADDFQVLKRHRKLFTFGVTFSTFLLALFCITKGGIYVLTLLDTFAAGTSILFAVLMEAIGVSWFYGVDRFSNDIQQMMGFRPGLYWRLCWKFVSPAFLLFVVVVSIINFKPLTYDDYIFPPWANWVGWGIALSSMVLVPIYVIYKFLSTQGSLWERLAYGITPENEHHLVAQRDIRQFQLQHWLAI
# [3] = molecular target: Sodium-dependent dopamine transporter (Homo sapiens, UniProt Q01959); assay: Inhibition of [3H]DA uptake at human recombinant DAT expressed in HEK293 cells; assay type: cell-based
# Chain of Sodium-dependent dopamine transporter (Q01959 whole entry): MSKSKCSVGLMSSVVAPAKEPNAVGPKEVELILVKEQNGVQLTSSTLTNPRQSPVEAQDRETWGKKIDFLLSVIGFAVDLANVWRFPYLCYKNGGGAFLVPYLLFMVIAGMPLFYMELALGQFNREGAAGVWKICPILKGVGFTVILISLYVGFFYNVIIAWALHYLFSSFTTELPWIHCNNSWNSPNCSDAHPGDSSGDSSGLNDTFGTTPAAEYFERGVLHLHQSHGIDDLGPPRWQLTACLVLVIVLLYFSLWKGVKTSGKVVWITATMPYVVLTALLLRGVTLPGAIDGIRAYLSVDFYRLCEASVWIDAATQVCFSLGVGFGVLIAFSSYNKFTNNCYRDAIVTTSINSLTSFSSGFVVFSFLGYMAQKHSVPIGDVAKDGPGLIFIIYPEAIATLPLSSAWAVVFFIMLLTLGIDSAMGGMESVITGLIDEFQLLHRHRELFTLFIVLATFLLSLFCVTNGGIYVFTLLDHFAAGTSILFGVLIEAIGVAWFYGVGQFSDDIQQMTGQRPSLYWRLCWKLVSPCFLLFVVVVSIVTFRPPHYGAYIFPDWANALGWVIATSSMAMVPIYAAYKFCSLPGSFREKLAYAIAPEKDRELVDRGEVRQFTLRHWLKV
# Cytochrome P450 3A4 = Cytochrome P450 3A4 (Homo sapiens, UniProt P08684); assay: Inhibition of CYP3A4; assay type: ADME
# Chain of Cytochrome P450 3A4 (P08684 whole entry): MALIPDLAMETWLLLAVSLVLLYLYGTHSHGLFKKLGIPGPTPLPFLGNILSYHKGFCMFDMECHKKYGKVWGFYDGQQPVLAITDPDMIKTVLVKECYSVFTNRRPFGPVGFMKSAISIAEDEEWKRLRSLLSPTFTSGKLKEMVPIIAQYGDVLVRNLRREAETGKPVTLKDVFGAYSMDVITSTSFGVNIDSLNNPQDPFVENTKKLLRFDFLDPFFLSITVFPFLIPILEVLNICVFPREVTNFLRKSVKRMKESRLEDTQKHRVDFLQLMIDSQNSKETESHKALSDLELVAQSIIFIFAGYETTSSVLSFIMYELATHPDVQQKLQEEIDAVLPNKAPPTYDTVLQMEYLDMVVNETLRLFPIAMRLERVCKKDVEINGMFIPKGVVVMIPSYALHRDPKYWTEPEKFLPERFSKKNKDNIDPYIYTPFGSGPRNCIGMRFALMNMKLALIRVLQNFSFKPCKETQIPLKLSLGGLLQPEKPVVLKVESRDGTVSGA
# [4] = Intrinsic clearance per 10^6 cells in human hepatocytes; assay type: ADME, cell-based, Liver, Hepatocyte
# Cytochrome P450 2D6 = Cytochrome P450 2D6 (Homo sapiens, UniProt P10635); assay: Inhibition of CYP2D6; assay type: ADME
# Chain of Cytochrome P450 2D6 (P10635 whole entry): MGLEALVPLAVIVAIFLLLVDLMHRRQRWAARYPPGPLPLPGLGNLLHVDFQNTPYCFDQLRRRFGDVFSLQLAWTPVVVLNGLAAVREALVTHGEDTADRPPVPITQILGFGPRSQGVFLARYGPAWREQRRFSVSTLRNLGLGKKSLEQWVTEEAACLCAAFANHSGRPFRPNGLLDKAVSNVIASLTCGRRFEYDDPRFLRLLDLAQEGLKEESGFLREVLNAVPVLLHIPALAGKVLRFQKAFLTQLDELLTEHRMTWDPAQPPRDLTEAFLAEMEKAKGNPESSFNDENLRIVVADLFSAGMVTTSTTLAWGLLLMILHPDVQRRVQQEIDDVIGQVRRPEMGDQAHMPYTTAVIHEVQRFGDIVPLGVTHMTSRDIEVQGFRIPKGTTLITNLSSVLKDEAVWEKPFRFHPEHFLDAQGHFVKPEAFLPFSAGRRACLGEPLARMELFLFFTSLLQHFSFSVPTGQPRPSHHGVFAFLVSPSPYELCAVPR
# [5] = Intrinsic clearance in human liver microsomes; assay type: ADME, Microsome
# Chain of Sodium-dependent serotonin transporter (P31645 whole entry): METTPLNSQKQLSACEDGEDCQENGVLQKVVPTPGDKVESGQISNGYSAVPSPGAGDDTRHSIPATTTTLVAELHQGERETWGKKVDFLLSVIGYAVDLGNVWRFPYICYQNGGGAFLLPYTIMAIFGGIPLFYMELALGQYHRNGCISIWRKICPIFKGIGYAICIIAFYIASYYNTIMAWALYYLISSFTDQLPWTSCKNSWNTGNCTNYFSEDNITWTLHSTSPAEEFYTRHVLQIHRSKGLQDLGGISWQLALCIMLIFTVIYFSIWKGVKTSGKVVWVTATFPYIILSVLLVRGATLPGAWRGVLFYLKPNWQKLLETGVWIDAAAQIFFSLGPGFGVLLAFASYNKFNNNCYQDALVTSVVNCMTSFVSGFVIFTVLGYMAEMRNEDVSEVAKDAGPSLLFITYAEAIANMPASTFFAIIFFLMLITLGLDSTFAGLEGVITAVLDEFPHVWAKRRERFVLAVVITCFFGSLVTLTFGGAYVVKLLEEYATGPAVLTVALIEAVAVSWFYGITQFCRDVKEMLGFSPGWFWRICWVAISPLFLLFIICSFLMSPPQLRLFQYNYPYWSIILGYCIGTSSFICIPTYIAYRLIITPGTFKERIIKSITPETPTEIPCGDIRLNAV
compound,measurement,setting,value
CNCc1cnccc1Oc1ccc(Cl)cc1Br,pIC50,[1],7.64
same,pIC50,[2],7.07
CN(C)Cc1cnccc1Oc1ccc(Cl)cc1Br,pIC50,[1],8.40
same,pIC50,[2],7.59
same,pIC50,[3],5.71
CNCc1cnc(C)cc1Oc1ccc(Cl)cc1C,pIC50,[1],8.22
same,pIC50,[2],7.29
CCc1cc(Cl)ccc1Oc1cc(C)ncc1CN(C)C,pIC50,[1],7.72
same,pIC50,[2],7.52
same,pIC50,[3],< 4.47
CNCc1cnccc1Oc1ccc(Cl)cc1C,pIC50,[1],7.85
same,pIC50,[2],6.61
Cc1cc(Oc2ccc(Cl)cc2C)c(CN(C)C)cn1,pIC50,Cytochrome P450 3A4,< 5.00
same,hepatocyte CLint,[4],< 5 µL/min/1e6 cells
same,pIC50,Cytochrome P450 2D6,< 5.00
same,pIC50,[1],8.22
same,pIC50,[2],7.59
same,microsomal CLint,[5],< 7 µL/min/mg
same,pIC50,[3],5.77
CCc1cc(Cl)ccc1Oc1ccncc1CNC,pIC50,[1],7.34
same,pIC50,[2],7.07
COc1cc(Cl)ccc1Oc1ccncc1CN(C)C,pIC50,[1],8.22
same,pIC50,[2],7.33
same,pIC50,[3],4.99
CNCc1cnccc1Oc1ccc(Cl)cc1OC,pIC50,[1],7.85
same,pIC50,[2],6.55
CNCc1cnccc1Oc1ccc(Cl)cc1Cl,pIC50,[1],7.41
same,pIC50,[2],6.80
CN(C)Cc1cnccc1Oc1ccc(Cl)cc1Cl,pIC50,[1],8.10
same,pIC50,[2],7.60
same,pIC50,[3],5.61
CCOc1cc(Cl)ccc1Oc1ccncc1CNC,pIC50,[1],7.62
same,pIC50,[2],6.40
CNCc1cnc(C)cc1Oc1ccc(C)cc1OC,pIC50,[1],7.74
same,pIC50,[2],6.59
CNCc1cnc(C)cc1Oc1ccc(F)cc1C,pIC50,[1],6.64
same,pIC50,[2],< 6.40
Cc1cc(Cl)ccc1Oc1ccncc1CN(C)C,pIC50,[1],8.52
same,pIC50,[2],7.44
same,pIC50,[3],5.49
CCc1cc(Cl)ccc1Oc1ccncc1CN(C)C,pIC50,[1],7.96
same,pIC50,[2],7.74
same,pIC50,[3],< 4.42
CNCc1cc(C(=O)N(C)C)ccc1Oc1ccc(Cl)cc1OC,hepatocyte CLint,[4],21 µL/min/1e6 cells
same,pIC50,[1],8.15
same,pIC50,[3],< 5.40
CNCc1cnc(C)cc1Oc1ccc(Cl)cc1Br,pIC50,[1],8.00
same,pIC50,[2],7.42
CNCc1cnc(C)cc1Oc1ccc(Cl)cc1OC,pIC50,[1],8.40
same,pIC50,[2],7.08
COc1cc(Cl)ccc1Oc1cc(C)ncc1CN(C)C,pIC50,Cytochrome P450 3A4,< 5.00
same,hepatocyte CLint,[4],< 5 µL/min/1e6 cells
same,pIC50,Cytochrome P450 2D6,< 5.00
same,pIC50,[1],7.89
same,pIC50,[2],7.59
same,microsomal CLint,[5],< 7 µL/min/mg
same,pIC50,[3],5.30
CCc1cc(Cl)ccc1Oc1cc(C)ncc1CNC,pIC50,[1],7.70
same,pIC50,[2],7.66
same,pIC50,[3],4.47
